Experimental data taken from ChEMBL document CHEMBL1201862, “PubChem BioAssay data set” (2004).
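Step 1: Grow cells in 96-well plates. Step 2: Expose to compound for 48 hours at 5 concentrations. Step 3: Interpolate endpoints linearly; if unreached, use highest concentration. At the GI50, growth is halved.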 The source made the active and inactive calls. No stated cut-off is given here; in the data, active = GI50 up to about 1.1 µM and inactive = higher.

How the values were obtained:
Test in all cases: NCI tumour cell line growth inhibition, 48 h
[1] = system: LXFL 529
[2] = system: EKVX
[3] = system: XF498
[4] = system: SN12C
[5] = system: DMS-273
[6] = system: ACHN
[7] = system: SK-MEL-28
[8] = system: SF-268
[9] = system: HOP-62
[10] = system: SK-MEL-5
[11] = system: HCC 2998
[12] = system: SF-295
[13] = system: HL-60
[14] = system: HOP-18
[15] = system: UO-31
[16] = system: Malme-3M
[17] = system: 786-0
[18] = system: U-251
[19] = system: SNB-19
[20] = system: A549
[21] = system: NCI-H460
[22] = system: HCT-116
[23] = system: RPMI-8226
[24] = system: SK-OV-3
[25] = system: SNB-78
[26] = system: NCI-H23
[27] = system: IGROV-1
[28] = system: SK-MEL-2
[29] = system: CAKI-1
[30] = system: CCRF-CEM
[31] = system: KM-20L2
[32] = system: K562
[33] = system: TK-10
[34] = system: HCT-15
[35] = system: SW-620
[36] = system: UACC-62
[37] = system: HT-29
[38] = system: M14
[39] = system: MOLT-4
[40] = system: KM12
[41] = system: SNB-75
[42] = system: DLD-1
[43] = system: OVCAR-4
[44] = system: OVCAR-8
[45] = system: COLO 205
[46] = system: A498
[47] = system: OVCAR-5
[48] = system: NCI-H522
[49] = system: HOP-92
[50] = system: LOX IMVI
[51] = system: SF-539
[52] = system: UACC-257
[53] = system: NCI-H226
[54] = system: DMS-114
[55] = system: RXF 393
[56] = system: SR
[57] = system: OVCAR-3
[58] = system: M19-MEL

Measured: GI50

COc1ccc(CCCN2c3ccccc3Sc3ccccc32)cc1
27.9 µM: [34]
inactive: [1] 73.1 µM | [2] > 100 µM | [3] > 100 µM | [4] > 100 µM | [5] 33.5 µM | [6] > 100 µM | [7] > 100 µM | [8] > 100 µM | [9] > 100 µM | [10] > 100 µM | [11] > 100 µM | [12] > 100 µM | [13] 41.3 µM | [14] > 100 µM | [15] > 100 µM | [16] > 100 µM | [17] 35.1 µM | [18] > 100 µM | [19] > 100 µM | [20] > 100 µM | [21] 99.5 µM | [22] 36.3 µM | [23] 32.3 µM | [24] > 100 µM | [25] 91.8 µM | [26] > 100 µM | [27] > 100 µM | [28] > 100 µM | [29] > 100 µM | [30] 51.2 µM | [31] 53.8 µM | [32] 17.3 µM | [33] > 100 µM | [35] 22.8 µM | [36] > 100 µM | [37] 54.1 µM | [38] > 100 µM | [39] 19.6 µM | [40] > 100 µM | [41] > 100 µM | [42] > 100 µM | [43] 53.2 µM | [44] > 100 µM | [45] 43.4 µM | [46] > 100 µM | [47] > 100 µM | [48] 33.1 µM | [49] > 100 µM | [50] 52.8 µM | [51] > 100 µM | [52] > 100 µM | [53] > 100 µM | [54] 28.1 µM | [55] > 100 µM

COc1cccc(NC(=O)C(C)(C)C)c1SSc1c(NC(=O)C(C)(C)C)cccc1OC
20 µM: [34]
inactive: [1] 15.8 µM | [2] 64.1 µM | [3] 15.2 µM | [4] 24.2 µM | [5] 96.8 µM | [6] 33.5 µM | [7] 32.7 µM | [8] 18.1 µM | [9] > 100 µM | [10] 44.1 µM | [56] 19.2 µM | [11] > 69.3 µM | [12] 36.9 µM | [13] 20.3 µM | [57] 37.9 µM | [14] > 69.7 µM | [15] 31.5 µM | [16] 33.7 µM | [17] 21.6 µM | [18] 17.3 µM | [19] 59 µM | [20] 44.9 µM | [21] 60.4 µM | [22] 22.4 µM | [23] 5.78 µM | [24] > 83.4 µM | [25] 22.3 µM | [26] 35 µM | [27] > 81.1 µM | [28] 48.3 µM | [29] > 42.5 µM | [30] 17.1 µM | [31] 98.4 µM | [32] 22.9 µM | [33] > 100 µM | [35] 18.2 µM | [36] 19.3 µM | [37] 27.3 µM | [38] 17.5 µM | [39] 17.7 µM | [40] 26.9 µM | [41] 40.6 µM | [42] > 43.7 µM | [43] 22.8 µM | [44] 19.3 µM | [58] 35.2 µM | [45] 26.9 µM | [46] > 100 µM | [47] 26.7 µM | [48] 14.2 µM | [49] 36.1 µM | [50] 15.4 µM | [51] 20.8 µM | [52] 22.7 µM | [53] > 53.8 µM | [54] > 10 µM | [55] 20.3 µM
